Entries after “also recorded” stand apart in the source; their conditions may differ.
How the values were obtained:
HSV-1 = experiment: Anti-HSV-1 replication assay in Vero cells, titers by plaque assay; format: cell-based, herpes simplex virus 1; settings: Human alphaherpesvirus 1, Vero, 24 h
In short: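 Vero monolayers infected with clinical HSV-1 or HSV-2 isolates at MOI 0.1 with compound present (50 and 5 μM final), 1 h at 37° C, then compound in DMEM for another 23 h. Yield titered by plaque assay on Vero cells; EC50 by nonlinear fit of serial dilutions starting at 50 μM, DMSO controls.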

[1] = test system: TK-deficient mutant of HSV-2 strain 333, ΔTK-; experiment: Replication of acyclovir-resistant TK-deficient HSV-2 mutant in Vero cells; format: cell-based, herpes simplex virus 2; settings: 5 μM, 24 hr, FIG. 4
Method: FIGS. 4A & 4B. Sensitivity of thymidine kinase-deficient HSV-2 to αHT compounds. […] Duplicate cultures were collected 24 hours post-infection and infectious virus titers were determined by plaque assay. Titers in compound-treated samples were subtracted from DMSO-treated samples. Values are the averages±one standard error of the mean. α-Hydroxytropolones inhibit an ACV-resistant mutant of HSV-2. […] Log10 suppression was determined relative to the diluent control. Data are the averages of data from duplicate samples±ranges from one of two independent experiments at each concentration.
Vero cells were maintained in Dulbecco's modified Eagle's medium (DMEM) containing 3% newborn calf serum, 3% bovine growth serum, 2 mM L-glutamine and 100 IU/mL penicillin and 0.1 mg/mL streptomycin (P/S). HSV-1 #6 and HSV-2 #1 are de-identified clinical isolates from the Saint Louis University Hospital. Stocks were prepared after a single passage in cell culture and were titered by standard plaque assay (Knipe and Spang, 1982). Wild-type HSV-2 used in FIG. 3 was laboratory strain 333. The TK-deficient mutant of HSV-2 strain 333, ΔTK-, contains a 180-bp KpnI-KpnI deletion in the UL23 open reading frame that abrogates TK activity (McDermott, et al, 1984). ΔTK- was the generous gift of Jim Smiley. Virus stocks were grown and titered on Vero cells (Morrison and Knipe, 1996).
HSV TK-deficient mutants are therefore insensitive to ACV. […] Vero cells were infected with a laboratory strain of HSV-2 and an engineered TK-deficient mutant of the same strain.

HSV = experiment: Anti-HSV SAR summary, HSV type not separated; format: cell-based, herpes simplex virus; settings: grouped by activity at 50, 5 and 0.5 μM
In short: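 Confluent monolayers were infected with HSV-1 or HSV-2 at MOI 0.1 in the presence of compound at 50 and 5 µM for 1 h at 37 °C. Compound was then re-added in DMEM/2% newborn calf serum for 23 h more. Yield was titred by plaque assay on Vero cells, with DMSO controls. EC50 values came from serial dilutions starting at 50 µM, fitted by non-linear regression.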

HBV = HBV replication assay in HepDES19 cells; format: cell-based; settings: Hepatitis B virus; HepDES19 cells; read-out: EC50 (HBV assay)
In short: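 HepDES19 cells induced by tetracycline withdrawal, then compound applied 48 h later in duplicate (1% DMSO final) and refreshed daily for two more days. After micrococcal nuclease digestion, capsid-associated HBV DNA purified and plus- and minus-strand DNA quantified by TaqMan PCR.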

[2] = Cytotoxicity reported with the HBV assay (Table 4); format: cell-based; settings: human, hepatoma cells; read-out: CC50 (HBV assay table)
In short: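 Cells exposed 24 h to compounds at 0.78–100 μM in 1% DMSO, under the same conditions as the viral replication assays.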

Structure (SMILES): Cc1cc(O)c(=O)c(O)cc1C(=O)c1ccc(-c2ccccc2)cc1 [Compound 118]
- EC50 (HSV-1; read-out: HSV-1 EC50): 0.085 µM
- log reduction at 5 µM (HSV-1; read-out: HSV-1 Log suppression 5 μM): 5.14
- log reduction at 50 µM (HSV-1; read-out: HSV-1 Log suppression 50 μM): 6.27
- inhibition of the TK-mutant strain, in words [1]: efficiently inhibited
- anti-HSV SAR group, in words (HSV): highly inhibitory at much lower concentrations; also recorded: fully inhibitory at 5 μM
- EC50 (HBV): 6 µM
- CC50 at 24 h [2]: 21 µM
